Several values for one entry are separate records, joined by “and”; a condition that tells them apart may be missing. Equal values may be shown once.
Tests used:
FAP [1] = tested on: FAP; parameters: method as in PMID 29626119; conditions: read-out: EC50 through competition assays; cited from earlier work
[2] = Plasma pharmacokinetics after IV bolus, non-compartmental analysis; type: in vivo, mouse; conditions: for AUC(0-inf) / C0 / clearance / half-life / Vd: mouse, plasma, healthy male DBA1/J mice, Mean ± SEM; for AUC(0-inf) / C0: IV bolus 2 nmol (FAPI dosed 51 nmol, dose normalized to 2 nmol); for clearance / half-life / Vd: IV bolus; for half-life: read-out: Terminal t1/2 (converted); for Vd: read-out: VD,ss; for clearance category (Fig. 1): words in Fig. 1
Protocol: FAPI was dosed IV (51 nmol) via the tail vein to maintain concentrations above LLOQ for PK analysis while all other FAPI conjugates were dosed IV (1 or 2 nmol in 150 µL PBS) via the tail vein. […] Whole blood was diluted with 10 mM EDTA in PBS and spun down to isolate plasma. Fluorescent ligand concentrations were quantified using a LI-COR Odyssey CLx scanner (Lincoln, NE) using a dilution series of fluorescent standards as previously reported. Non-compartmental analysis was conducted using the concentration vs. time profiles for each probe with MATLAB. The predicted initial concentration, terminal phase half-life, exposure (AUC0-inf), AUC extrapolation percentage, volume of distribution at steady state, and terminal clearance were reported for each dosed probe.

[3] = target: T1, cell surface FAP (HEK293-hFAP cells) (Homo sapiens, UniProt Q12884); test: Competition assay against FAPI-ALB-AF647 for indirect KD; type: binding; conditions: competition with FAPI-ALB-AF647, 60 nM each, 30 min on ice, read-out: KD (nM), indirectly calculated
T1 construct: expressed in transfected cells; host or cells: HEK293 (ATCC, CRL-1573), Lipofectamine 3000 transfection, puromycin selection
T1 sequence (Q12884 1-760): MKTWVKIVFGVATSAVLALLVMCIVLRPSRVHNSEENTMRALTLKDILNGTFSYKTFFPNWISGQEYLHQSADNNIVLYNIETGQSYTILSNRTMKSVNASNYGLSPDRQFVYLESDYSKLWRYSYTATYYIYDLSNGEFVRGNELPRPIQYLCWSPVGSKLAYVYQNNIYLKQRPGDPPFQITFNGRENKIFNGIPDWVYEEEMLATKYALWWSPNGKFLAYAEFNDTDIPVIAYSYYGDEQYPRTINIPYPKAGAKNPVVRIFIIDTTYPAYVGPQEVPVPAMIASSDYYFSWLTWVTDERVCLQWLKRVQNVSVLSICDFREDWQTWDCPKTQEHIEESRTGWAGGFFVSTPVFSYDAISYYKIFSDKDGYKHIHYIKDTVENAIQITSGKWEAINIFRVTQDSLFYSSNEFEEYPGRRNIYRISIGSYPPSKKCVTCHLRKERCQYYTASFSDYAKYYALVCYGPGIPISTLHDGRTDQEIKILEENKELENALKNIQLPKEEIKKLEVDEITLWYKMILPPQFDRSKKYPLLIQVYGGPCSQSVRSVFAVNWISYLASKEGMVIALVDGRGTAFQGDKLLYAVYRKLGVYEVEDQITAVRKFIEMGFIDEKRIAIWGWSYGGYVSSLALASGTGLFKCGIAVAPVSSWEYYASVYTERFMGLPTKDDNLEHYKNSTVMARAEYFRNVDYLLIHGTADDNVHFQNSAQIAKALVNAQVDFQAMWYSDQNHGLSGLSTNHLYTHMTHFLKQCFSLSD
Protocol: Both the FAPI-ALB-AF647 and the unlabeled competitor were incubated at 60 nM each on HEK293-hFAP cells for 30 min on ice to approach steady-state binding. The competition assay cells were pelleted and washed twice with PBS w/ 0.1% BSA before being analyzed using a BD Fortessa flow cytometer. The loss in signal from the competition incubation was then compared to the signal of the FAPI-ALB-AF647 incubation alone to determine the relative binding affinity.

FAP [4] = target: T2, FAP (Mus musculus, UniProt P97321); test: In vivo near-infrared imaging of paws with competitive blocking, CIA model
T2 construct: Increased FAP expression with increasing disease severity in CIA mice as assessed with IHC; from tissue; host or cells: inflamed paws of live DBA/1J mice with collagen-induced arthritis
T2 sequence (P97321 1-761): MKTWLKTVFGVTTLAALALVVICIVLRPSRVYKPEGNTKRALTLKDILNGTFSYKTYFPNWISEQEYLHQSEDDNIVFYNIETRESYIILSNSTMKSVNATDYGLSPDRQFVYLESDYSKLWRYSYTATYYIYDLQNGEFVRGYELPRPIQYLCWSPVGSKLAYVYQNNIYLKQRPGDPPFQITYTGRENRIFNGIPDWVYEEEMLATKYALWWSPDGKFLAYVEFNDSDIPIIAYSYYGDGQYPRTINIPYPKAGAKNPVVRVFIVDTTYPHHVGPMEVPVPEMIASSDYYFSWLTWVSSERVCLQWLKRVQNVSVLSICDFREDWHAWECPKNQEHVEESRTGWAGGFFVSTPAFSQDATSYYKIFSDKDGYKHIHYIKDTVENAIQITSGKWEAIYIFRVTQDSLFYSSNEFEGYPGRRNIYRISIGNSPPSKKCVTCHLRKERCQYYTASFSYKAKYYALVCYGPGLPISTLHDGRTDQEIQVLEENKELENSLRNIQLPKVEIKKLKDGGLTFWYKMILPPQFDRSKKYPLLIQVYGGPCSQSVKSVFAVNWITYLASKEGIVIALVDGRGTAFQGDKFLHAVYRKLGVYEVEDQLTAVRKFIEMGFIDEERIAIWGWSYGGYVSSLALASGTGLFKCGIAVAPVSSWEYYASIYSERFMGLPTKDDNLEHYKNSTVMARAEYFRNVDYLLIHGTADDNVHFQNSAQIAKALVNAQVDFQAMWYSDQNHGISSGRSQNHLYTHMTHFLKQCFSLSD

[5] = Plasma protein binding by equilibrium dialysis; type: in vitro ADME; conditions: CD1 mouse plasma, 1 µM, equilibrium dialysis 4 h at 37 °C
Protocol: CD1 mouse plasma protein binding was assessed via equilibrium dialysis. Dry membranes (HT Dialysis, HTD96b) were soaked in DI water for 15 min and then in 30% ethanol for another 15 min. After washing the membranes 3 times with DI water, the membranes were placed in dialysis buffer (potassium phosphate, 50 mM, pH 7.4) until the assay began. At the beginning of the assay, the membranes were placed in the dialysis block and 100 µL of buffer was added to both sides of the membrane to maintain membrane hydration/integrity. Each compound was diluted to 1 µM using plasma and then 100 µL of this mixture was added to one side of the membrane while 100 µl of […] was placed in opposite well. The plate was then sealed and placed on an orbital shaker (150 rpm) in an incubator at 37 °C for 4 h. Afterwards, samples were taken from the donor and acceptor side of the well, vortexed, centrifuged at 3300 rpm for 15 min at 4 °C and then analyzed for compound content using LC/MS.

HEK293-hFAP cells = test: Receptor net internalization assay, flow cytometry with Trypan Blue quench; type: cell-based, human; conditions: endogenous and overexpressing cells together
Protocol: The receptor internalization assay was adapted from a previously published method for peptides[61],[63]. Briefly, HEK293-hFAP cells were sub-cultured into 6-well plates and allowed to adhere for 12–16 h. After washing cells with media, 100 nM of FAPI-AF488 in media was added to each well. Cells were incubated at 37 °C in the continuous presence of FAPI-AF488 and allowed to internalize. At each time point, plates were chilled, wells washed twice with PBS with 0.1% BSA, and cells lifted following Accutase incubation. Lastly, cells were resuspended in PBS or a dilution of 0.4% Trypan Blue before being analyzed via flow cytometry to differentiate between internal and surface fluorescence. The surface fluorescence was determined as (unquenched MFU – quenched MFU)/ɛ, where ɛ is the quenching efficiency determined by comparing the quenched and unquenched signals of cells that had been labeled briefly on ice to prevent internalization. The internal fluorescence was then calculated as total MFU – surface MFU. Non-specific uptake of small molecules was measured using cells where FAPI-AF488 was competed out with 100-fold excess concentration of the unlabeled FAPI. The corrected internal MFU values were plotted against the surface fluorescence integral; the slope of the linear curve is the internalization rate ke[64]. The same procedure was followed for the endogenous RAFLS cells.

| SMILES | EC50 (FAP [1]) | AUC(0-inf) [2] | C0 [2] | clearance [2] | half-life [2] | Vd [2] | clearance category (Fig. 1) [2] | Kd [3] | mean fluorescence intensity in healthy paws (FAP [4]; healthy mice, 5 h, 1 nmol IV, no block) | % Protein Bound ± SD [5] | mean fluorescence intensity of FAPI-ALB-800CW in inflamed paws when blocked by this compound (FAP [4]; CIA mice, 24 h, 1 nmol IV probe, blocker co-administered at 50-fold molar excess) | internalization half-life (t1/2) (HEK293-hFAP cells) | effect of co-dosed molar excess blocker on FAPI-800CW uptake in inflamed paws (FAP [4]; CIA mice, 5 h, 50-fold molar excess) |
| --- | --- | --- | --- | --- | --- | --- | --- | --- | --- | --- | --- | --- | --- |
| N#C[C@@H]1CC(F)(F)CN1C(=O)CNC(=O)c1ccnc2ccc(OCCCN3CCN(C(=O)CN4CCN(CC(=O)O)CCN(CC(=O)O)CCN(CC(=O)O)CC4)CC3)cc12 [FAPI-04] | 6.5 nM | – | – | – | – | – | – | – | – | – | – | – | – |
| CC1(C)C(/C=C/C2=C(Oc3ccc(S(=O)(=O)O)cc3)C(=C/C=C3/N(CCCCS(=O)(=O)O)c4ccc(S(=O)(=O)O)cc4C3(C)C)/CCC2)=[N+](CCCCCC(=O)N2CCN(CCCOc3ccc4nccc(C(=O)NCC(=O)N5CC(F)(F)C[C@H]5C#N)c4c3)CC2)c2ccc(S(=O)(=O)O)cc21.O=C([O-])C(F)(F)F [FAPI-800CW] | – | 0.525 ± 0.025 µM·h | 1250 ± 52 nM | 0.0638 mL/min | 60 ± 6 min | 0.0039 ± 0.0002 L | Moderate clearance | 8 nM | 0.026 ± 0.007 | – | – | – | – |
| N#CC1CC(F)(F)CN1C(=O)CNC(=O)c1ccnc2ccc(OCCCN3CCN(C(=O)C(N)CCC(=O)NCCOCCOCC(=O)NCc4ccc(S(=O)(=O)NC(=O)c5ccc(-c6ccc(C(F)(F)F)cc6)cc5)cc4)CC3)cc12 (stereo not shown) [FAPI-ALB] | – | 0.088 ± 0.018 µM·h | 189 ± 52 nM | 0.42 mL/min | 54 min | 0.0145 ± 0.0084 L | Moderate clearance | 3.6 nM | – | 98.9 ± 0.2% | 0.07 ± 0.01 | – | – |
| N#C[C@@H]1CC(F)(F)CN1C(=O)CNC(=O)c1ccnc2ccc(OCCCN3CCNCC3)cc12 [FAPI] | – | 0.014 ± 0.004 µM·h | 50 ± 7 nM | 3.9 mL/min | 30 ± 6 min | 0.0627 ± 0.0184 L | Fast clearance | 6 nM | – | 44.7% and 44.7 ± 3.1% | – | 240 to 480 min | did not provide a similar reduction |

Reference: PMC12118671, “Increased imaging ligand hydrophilicity and improved pharmacokinetic properties provides enhanced in vivo targeting of fibroblast activation protein” (npj Imaging, 2024)
